Key:
NCI/ADR-RES = format: cell-based; details: Homo sapiens, one dose 10^-5 M, 48 h
MCF7 = format: cell-based; details: Homo sapiens, one dose 10^-5 M, 48 h, read-out: % growth
MOLT-4 = format: cell-based; details: Homo sapiens, one dose 10^-5 M, 48 h, read-out: % growth
DU-145 = format: cell-based; details: Homo sapiens, one dose 10^-5 M, 48 h
SNB-19 = format: cell-based; details: Homo sapiens, one dose 10^-5 M, 48 h, read-out: % growth
HCT-116 = format: cell-based; details: Homo sapiens, one dose 10^-5 M, 48 h, read-out: % growth
K-562 = format: cell-based; details: Homo sapiens, K562, one dose 10^-5 M, 48 h
LOX IMVI = format: cell-based; details: Homo sapiens, one dose 10^-5 M, 48 h, read-out: % growth
A498 = format: cell-based; details: Homo sapiens, one dose 10^-5 M, 48 h
SF-539 = format: cell-based; details: Homo sapiens, one dose 10^-5 M, 48 h
HOP-62 = format: cell-based; details: Homo sapiens, one dose 10^-5 M, 48 h
OVCAR-3 = format: cell-based; details: Homo sapiens, one dose 10^-5 M, 48 h
MDA-MB-468 = format: cell-based; details: Homo sapiens, one dose 10^-5 M, 48 h
SK-MEL-5 = format: cell-based; details: Homo sapiens, one dose 10^-5 M, 48 h, read-out: % growth
A549/ATCC = format: cell-based; details: Homo sapiens, one dose 10^-5 M, 48 h
NCI-H23 = format: cell-based; details: Homo sapiens, one dose 10^-5 M, 48 h, read-out: % growth
UO-31 = format: cell-based; details: Homo sapiens, UO-31, 48 h, one dose 10^-5 M, 48 h
IGROV1 = format: cell-based; details: Homo sapiens, IGROV-1, one dose 10^-5 M, 48 h, read-out: % growth
M14 = format: cell-based; details: Homo sapiens, one dose 10^-5 M, 48 h
OVCAR-8 = format: cell-based; details: Homo sapiens, one dose 10^-5 M, 48 h
MDA-MB-435 = format: cell-based; details: Homo sapiens, one dose 10^-5 M, 48 h, read-out: % growth
COLO 205 = format: cell-based; details: Homo sapiens, one dose 10^-5 M, 48 h
U251 = format: cell-based; details: Homo sapiens, U-251, one dose 10^-5 M, 48 h
MDA-MB-231/ATCC = format: cell-based; details: Homo sapiens, one dose 10^-5 M, 48 h
HT29 = format: cell-based; details: Homo sapiens, HT-29, one dose 10^-5 M, 48 h
CAKI-1 = format: cell-based; details: Homo sapiens, CAKI-1, 48 h, one dose 10^-5 M, 48 h
MALME-3M = format: cell-based; details: Homo sapiens, one dose 10^-5 M, 48 h
SK-OV-3 = format: cell-based; details: Homo sapiens, one dose 10^-5 M, 48 h
PC-3 = format: cell-based; details: Homo sapiens, one dose 10^-5 M, 48 h
SR = format: cell-based; details: Homo sapiens, one dose 10^-5 M, 48 h
KM12 = format: cell-based; details: Homo sapiens, one dose 10^-5 M, 48 h
HOP-92 = format: cell-based; details: Homo sapiens, one dose 10^-5 M, 48 h
SF-268 = format: cell-based; details: Homo sapiens, one dose 10^-5 M, 48 h, read-out: % growth
HS 578T = format: cell-based; details: Homo sapiens; one dose 10^-5 M, 48 h; HS 578T; read-out: % growth
ACHN = format: cell-based; details: Homo sapiens, one dose 10^-5 M, 48 h
HCC-2998 = format: cell-based; details: Homo sapiens, one dose 10^-5 M, 48 h
UACC-62 = format: cell-based; details: Homo sapiens, one dose 10^-5 M, 48 h
NCI-H460 = format: cell-based; details: Homo sapiens, one dose 10^-5 M, 48 h, read-out: % growth
SF-295 = format: cell-based; details: Homo sapiens, one dose 10^-5 M, 48 h
RXF 393 = format: cell-based; details: Homo sapiens, RXF 393, 48 h, one dose 10^-5 M, 48 h, read-out: % growth
BT-549 = format: cell-based; details: Homo sapiens, one dose 10^-5 M, 48 h
SK-MEL-2 = format: cell-based; details: Homo sapiens, one dose 10^-5 M, 48 h
EKVX = format: cell-based; details: Homo sapiens, one dose 10^-5 M, 48 h
SW-620 = format: cell-based; details: Homo sapiens, one dose 10^-5 M, 48 h
OVCAR-5 = format: cell-based; details: Homo sapiens, one dose 10^-5 M, 48 h
SN12C = format: cell-based, human; details: Homo sapiens, one dose 10^-5 M, 48 h
OVCAR-4 = format: cell-based; details: Homo sapiens, one dose 10^-5 M, 48 h
786-0 = format: cell-based; details: Homo sapiens, one dose 10^-5 M, 48 h
CCRF-CEM = format: cell-based; details: Homo sapiens, one dose 10^-5 M, 48 h
TK-10 = format: cell-based; details: Homo sapiens, one dose 10^-5 M, 48 h
[1] = tested on: full NCI 60 cell lines panel; details: for activity at 10 µM: Homo sapiens, 60 cell, read-out: Mean % growth
Experimental: 60 different human tumour cell lines-representing leukaemia, melanoma, and malignancies of the lung, colon, brain, ovary, breast, prostate, and kidney are used in the operation of this screen.
Compounds were dissolved in DMSO: glycerol (91) and were kept in a freezer at −70° C. The synthesised compounds were introduced to the culture at a single concentration of 1 0 ^−5 M and left to incubate for 48 h. A protein-binding dye called sulforhodamine B was used to measure end points (SRB).
A mean graph showing the % growth of treated cells is used to represent the one-dose data. The value provided for the One-dose assay represents growth in comparison to the no-drug control and to the number of cells at time zero. This enables the identification of lethality (values between 0 and 100) as well as growth inhibition (values less than 0). A value of 100, for instance, indicates no growth inhibition. A value of 40 would indicate 60% growth inhibition. A value of 0 indicates no net growth over the course of the experiment. A value of −40 would indicate 40% lethality.
Furthermore, the average sensitivity of all cell lines to the compound is termed as the full panel mean graph midpoints (MG-MID). The complete panel mean graph midpoints refers to the average sensitivity of all cell lines to the chemical (MG-MID). A measure of a compound’s selectivity for a given cell line is the ratio created by dividing the full panel mean graph midpoints (MG-MID) concentration by the individual subpanel MG-MID concentrations (obtained as the average sensitivity of all the cell lines in a given subpanel to the test compound).

RPMI-8226 = format: cell-based; details: Homo sapiens, one dose 10^-5 M, 48 h
NCI-H522 = format: cell-based; details: Homo sapiens, one dose 10^-5 M, 48 h
UACC-257 = format: cell-based; details: Homo sapiens, one dose 10^-5 M, 48 h
SK-MEL-28 = format: cell-based; details: Homo sapiens, one dose 10^-5 M, 48 h
T-47D = format: cell-based; details: Homo sapiens, T47D, one dose 10^-5 M, 48 h, read-out: % growth
NCI-H226 = format: cell-based; details: Homo sapiens, one dose 10^-5 M, 48 h
HCT-15 = format: cell-based; details: Homo sapiens, one dose 10^-5 M, 48 h, read-out: % growth
HL-60(TB) = format: cell-based; details: Homo sapiens, one dose 10^-5 M, 48 h

With N=C(NN=Cc1ccc(Cl)cc1Cl)c1c(N)nc(S)nc1-c1ccc(Cl)cc1Cl [Compound 4r, 4-amino-6–(2,4-dichlorophenyl)-N'-[(2,4-dichlorophenyl)methylene]-2-mercapto pyrimidine-5-carboximidohydrazide] the cell growth percent at 10 µM (NCI/ADR-RES) was 111%, the activity at 10 µM (MCF7) was 98.9% and the activity at 10 µM (MOLT-4) was 100%. For the same molecule, the % growth at 10 µM (DU-145) was 108%, the activity at 10 µM (SNB-19) was 94.6% and the activity at 10 µM (HCT-116) was 102%. For the same molecule, the % growth at 10 µM (K-562) was 100%, the activity at 10 µM (LOX IMVI) was 104% and the % growth at 10 µM (A498) was 117%. The % growth at 10 µM (SF-539) was 101%, the % growth at 10 µM (HOP-62) was 102% and the % growth at 10 µM (OVCAR-3) was 108%. For the same molecule, the percent cell growth at 10 µM (MDA-MB-468) was 111%, the activity at 10 µM (SK-MEL-5) was 107% and the % growth at 10 µM (A549/ATCC) was 102%. For the same molecule, the activity at 10 µM (NCI-H23) was 104%, the % cell growth at 10 µM (UO-31) was 92.5% and the activity at 10 µM (IGROV1) was 102%. For the same molecule, the % growth at 10 µM (M14) was 97.4%, the % growth of cells at 10 µM (OVCAR-8) was 110% and the activity at 10 µM (MDA-MB-435) was 113%. It also gave a % growth at 10 µM (COLO 205) of 113%, a % growth at 10 µM (U251) of 105% and a % growth at 10 µM (MDA-MB-231/ATCC) of 101%. It also gave a % growth at 10 µM (HT29) of 118%, a % growth at 10 µM (CAKI-1) of 109% and a % growth at 10 µM (MALME-3M) of 86.5%. It also gave a % growth at 10 µM (SK-OV-3) of 105%, a percent cell growth at 10 µM (PC-3) of 98.1% and a percent cell growth at 10 µM (SR) of 92.6%. The % growth at 10 µM (KM12) was 100%, the % growth at 10 µM (HOP-92) was 78% and the activity at 10 µM (SF-268) was 101%. It also gave an activity at 10 µM (HS 578T) of 105%, a % growth at 10 µM (ACHN) of 107% and a % growth at 10 µM (HCC-2998) of 100%. The % growth at 10 µM (UACC-62) was 96.4%, the activity at 10 µM (NCI-H460) was 111% and the % cell growth at 10 µM (SF-295) was 98.5%. The activity at 10 µM (RXF 393) was 119%, the % cell growth at 10 µM (BT-549) was 91.6% and the % growth at 10 µM (SK-MEL-2) was 111%. It also gave a % cell growth at 10 µM (EKVX) of 114%, a % growth at 10 µM (SW-620) of 105% and a percent cell growth at 10 µM (OVCAR-5) of 117%. It also gave a % growth at 10 µM (SN12C) of 102%, a % growth at 10 µM (OVCAR-4) of 104% and a % growth at 10 µM (786-0) of 87.5%. For the same molecule, the % cell growth at 10 µM (CCRF-CEM) was 94.9%, the % cell growth at 10 µM (TK-10) was 112% and the activity at 10 µM ([1]; 48 h) was 104%. For the same molecule, the “activity on all 60 cancer cell lines tested (in words)” value ([1]; one dose) was “weak activity”, the Mean % growth ([1]; one dose 10^-5 M, 48 h, mean over all cell lines) was 103.80% and the % growth at 10 µM (RPMI-8226) was 106%. It also gave a % growth at 10 µM (NCI-H522) of 100%, a percent cell growth at 10 µM (UACC-257) of 106% and a % cell growth at 10 µM (SK-MEL-28) of 113%. The activity at 10 µM (T-47D) was 103%, the % growth at 10 µM (NCI-H226) was 106% and the activity at 10 µM (HCT-15) was 113%. The % growth at 10 µM (HL-60(TB)) was 102%.

For Nc1nc(S)nc(-c2ccc(Cl)cc2Cl)c1-c1ncn[nH]1 [Compound 5c, 4-Amino-6–(2,4-dichlorophenyl)-5-(1H-1,2,4-triazol-5-yl)pyrimidine-2-thiol], the cell growth percent at 10 µM (NCI/ADR-RES) was 106%, the activity at 10 µM (MCF7) was 94.1% and the activity at 10 µM (MOLT-4) was 91.4%. For the same molecule, the % growth at 10 µM (DU-145) was 112%, the activity at 10 µM (SNB-19) was 97.1% and the activity at 10 µM (HCT-116) was 97.8%. The % growth at 10 µM (K-562) was 98%, the activity at 10 µM (LOX IMVI) was 104% and the % growth at 10 µM (A498) was 120%. The % growth at 10 µM (SF-539) was 101%, the % growth at 10 µM (HOP-62) was 93.9% and the % growth at 10 µM (OVCAR-3) was 109%. It also gave a percent cell growth at 10 µM (MDA-MB-468) of 104%, an activity at 10 µM (SK-MEL-5) of 94.8% and a % growth at 10 µM (A549/ATCC) of 102%. For the same molecule, the activity at 10 µM (NCI-H23) was 105%, the % cell growth at 10 µM (UO-31) was 89.9% and the activity at 10 µM (IGROV1) was 102%. The % growth at 10 µM (M14) was 98.7%, the % growth of cells at 10 µM (OVCAR-8) was 103% and the activity at 10 µM (MDA-MB-435) was 105%. It also gave a % growth at 10 µM (COLO 205) of 104%, a % growth at 10 µM (U251) of 105% and a % growth at 10 µM (MDA-MB-231/ATCC) of 104%. For the same molecule, the % growth at 10 µM (HT29) was 102%, the % growth at 10 µM (CAKI-1) was 90.8% and the % growth at 10 µM (MALME-3M) was 98.2%. The % growth at 10 µM (SK-OV-3) was 94.2%, the percent cell growth at 10 µM (PC-3) was 95.8% and the percent cell growth at 10 µM (SR) was 83.2%. The % growth at 10 µM (KM12) was 103%, the % growth at 10 µM (HOP-92) was 106% and the activity at 10 µM (SF-268) was 101%. It also gave an activity at 10 µM (HS 578T) of 98.6%, a % growth at 10 µM (ACHN) of 109% and a % growth at 10 µM (HCC-2998) of 105%. For the same molecule, the % growth at 10 µM (UACC-62) was 95.3%, the activity at 10 µM (NCI-H460) was 108% and the % cell growth at 10 µM (SF-295) was 100%. It also gave an activity at 10 µM (RXF 393) of 110%, a % cell growth at 10 µM (BT-549) of 97.3% and a % growth at 10 µM (SK-MEL-2) of 104%. The % cell growth at 10 µM (EKVX) was 50%, the % growth at 10 µM (SW-620) was 102% and the percent cell growth at 10 µM (OVCAR-5) was 107%. The % growth at 10 µM (SN12C) was 107%, the % growth at 10 µM (OVCAR-4) was 105% and the % growth at 10 µM (786-0) was 90.7%. For the same molecule, the % cell growth at 10 µM (CCRF-CEM) was 92.7%, the % cell growth at 10 µM (TK-10) was 114% and the activity at 10 µM ([1]; 48 h) was 100%. It also gave a % growth at 10 µM (RPMI-8226) of 103%, a % growth at 10 µM (NCI-H522) of 88.8% and a percent cell growth at 10 µM (UACC-257) of 112%. The % cell growth at 10 µM (SK-MEL-28) was 115%, the activity at 10 µM (T-47D) was 106% and the % growth at 10 µM (NCI-H226) was 110%. It also gave an activity at 10 µM (HCT-15) of 102% and a % growth at 10 µM (HL-60(TB)) of 70.9%.

Source: PMC10866072, “Design, synthesis, molecular modelling and biological evaluation of novel 6-amino-5-cyano-2-thiopyrimidine derivatives as potent anticancer agents against leukemia and apoptotic inducers” (Journal of Enzyme Inhibition and Medicinal Chemistry, 2024)
